In patent US5872144A, “4-aminoethoxyindazole derivatives” (American Home Products Corporation, priority 1998, dated 1999):

Assays:
[1] = target: T1, dopamine autoreceptor (D2) (Rattus norvegicus, UniProt P61169); assay: 3H-quinpirole (D2 Quin.) binding, homogenized rat striatal brain tissue, affinity for dopamine autoreceptor
T1 construct: homogenized rat striatal brain tissue; from tissue; host or cells: rat striatum, homogenate
Procedure: Affinity for the dopamine autoreceptor was established by a modification of the standard experimental test procedure of Seemen and Schaus, European Journal of Pharmacology 203, 105-109, 1991, wherein homogenized rat striatal brain tissue is incubated with ^3 H-quinpirole (Quin.) and various concentrations of test compound, filtered and washed and counted in a Betaplate scintillation counter.

[2] = tested on: dopamine D2 receptor; assay: Intrinsic activity at the dopamine D2 receptor, ratio LowAg/HighAg; format: binding; conditions: D2 Spiper IC50 / D2 Quin. IC50 (LowAg/HighAg)
Source text: Efforts to induce antipsychotic activity with dopamine autoreceptor agonists have been successful (Dorsini et al., Adv. Biochem. […] et al., Science, 200, 567-568, 1975; and […] et al., Psychiatry, 398-402, 1986). […] Pharm., 42, 432-438, (1993)]. Intrinsic activity is predicted using the ratio of the "low-affinity agonist" (LowAg) state of the receptor and the "high-affinity agonist" ([…]) state of the receptor, […]. These ratios correlate with the agonist, partial agonist, and antagonist activities of a given compound, which activities characterize a compounds ability to elicit an antipsychotic effect. […] Activation of the dopamine autoreceptors results in reduced neuronal firing a well as inhibition of dopamine synthesis and release and therefore provide a means of controlling hyperactivity of the dopaminergic systems. The compounds of this invention were also found to have high intrinsic activity and therefore they can behave as the natural neurotransmitter i.e. as full agonists. […] Affinity for the dopamine autoreceptor was established by a modification of the standard experimental test procedure of Seemen and Schaus, European Journal of Pharmacology 203, 105-109, 1991, wherein homogenized rat striatal brain tissue is incubated with ^3 H-quinpirole (Quin.) and various concentrations of test compound, filtered and washed and counted in a Betaplate scintillation counter. […]

[3] = target: T2, dopamine D-2 receptor (Rattus norvegicus, UniProt P61169); assay: 3H-spiroperidol (D2 Spiper.) binding, homogenized limbic brain tissue
T2 construct: from tissue; host or cells: limbic brain tissue, homogenate
T2 sequence (P61169 whole entry): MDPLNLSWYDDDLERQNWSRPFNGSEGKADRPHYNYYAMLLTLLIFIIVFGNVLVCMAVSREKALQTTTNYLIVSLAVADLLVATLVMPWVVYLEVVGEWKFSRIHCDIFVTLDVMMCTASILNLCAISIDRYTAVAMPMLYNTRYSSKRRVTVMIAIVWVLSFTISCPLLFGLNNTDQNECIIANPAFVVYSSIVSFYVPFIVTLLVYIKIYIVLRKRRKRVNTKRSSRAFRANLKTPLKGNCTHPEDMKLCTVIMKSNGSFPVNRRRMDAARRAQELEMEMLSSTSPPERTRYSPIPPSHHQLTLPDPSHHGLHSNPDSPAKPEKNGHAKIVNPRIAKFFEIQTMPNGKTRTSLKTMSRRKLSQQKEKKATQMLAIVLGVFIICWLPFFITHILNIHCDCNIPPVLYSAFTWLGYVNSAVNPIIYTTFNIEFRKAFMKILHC
Procedure: High affinity for the dopamine D-2 receptor was established by the standard experimental test procedure of Fields, et al., Brain Res., 136, 578 (1977) and Yamamura et al., eds., Neurotransmitter Receptor Binding, Raven Press, N.Y. (1978) wherein homogenized limbic brain tissue is incubated with ^3 H-spiroperidol (Spiper.) and various concentrations of test compound, filtered and washed and shaken with Hydrofluor scintillation cocktail (National Diagnostics) and counted in a Packard 460 CD scintillation counter.

T1 sequence (P61169 whole entry): as above

| IC50 [1] [nM] | Ratio [2] | IC50 [3] [nM] | Structure (SMILES) |
| --- | --- | --- | --- |
| 2.78 | – | – | c1cc(OCCNCc2ccsc2)c2cn[nH]c2c1 [Example 3, [2-(1H-Indazol-4-yloxy)-ethyl]-thiophen-3-ylmethyl-amine] |
| 4.3 | 254 | 1090 | c1csc(CNCCOc2cccc3[nH]ncc23)c1 [Example 2, [2-(1H-Indazol-4-yloxy)-ethyl]-thiophen-2-ylmethyl-amine] |
| 2.23 | 151 | 333 | c1ccc(CNCCOc2cccc3[nH]ncc23)cc1 [Example 1, Benzyl-[2-(1H-indazo-4-yloxy)-ethyl]-amine] |
